Assay results taken from US12616705B2, “Use of cannabinoids in the treatment of Angelman syndrome” (JAZZ PHARMACEUTICALS RESEARCH UK LIMITED, priority 2016, dated 2026).

Tests used:
[1] = tested on: Heterozygous mice with maternal deficiency of Ube3A (Ube3am−/p+); assay: Clasping test (ataxia) in a mouse model of Angelman syndrome; type: in vivo; details: AS mice, CBD 20 mg/kg i.p. daily, chronic treatment (30 days), at 10 weeks of age, vs AS mice treated with vehicle; FIG. 1
Protocol: (§1) Heterozygous mice with maternal deficiency of Ube3A (Ube3am−/p+) and wild type (Ube3am+/p+) were purchased from The Jackson Laboratory (Jackson code: B6.12957-Ube3a tm1Alb/J) and maintained in a C57BL/6 background.
(§2) Drugs were dissolved in 1:1:18 ethanol:cremophor: 0.9% saline, for intraperitoneal (i.p.) administration. […]
Clasping: The clasping test assesses ataxia in mice. Mice were suspended by the base of the tail and their behaviours were recorded for 30 seconds. The time for which the mice clasped their hind limbs was recorded. The time was then scored as follows: 4, 15-30 s, 3, 10-15 s, 2, 5-10 s, 1, 0-5 s and 0, 0 s.

[2] = tested on: Heterozygous mice with maternal deficiency of Ube3A (Ube3am−/p+); assay: Rotarod test (balance and motor coordination) in a mouse model of Angelman syndrome; type: in vivo; details: AS mice, CBD 20 mg/kg i.p. daily, chronic treatment (30 days), vs AS mice treated with vehicle; FIG. 2
Protocol: as §1, §2
Rotarod: The rotarod test assesses balance and motor coordination of mice. Mice have been measured for the time (in seconds) of equilibrium before falling on a rotary cylinder by a magnet that, activated from the fall of the mouse on the plate, allows to record the time of permanence on the cylinder. […] The animals were analysed by 2 separate tests at 1-h interval in the same day.

[3] = tested on: Heterozygous mice with maternal deficiency of Ube3A (Ube3am−/p+); assay: Tail suspension test (depressive-like behaviour) in a mouse model of Angelman syndrome; type: in vivo; details: AS mice, CBD 20 mg/kg i.p. daily, vs AS mice treated with vehicle; FIG. 4
Protocol: as §1
Drugs were dissolved in 1:1:18 ethanol:cremophor: 0.9% saline, for intraperitoneal (i.p.) administration. Drug treatment was performed daily for 35 days.
Tail suspension: The tail suspension test assesses depressive-like behaviour in mice. Mice were individually suspended by the tail on a horizontal bar (50 cm from floor) using adhesive tape placed approximately 4 cm from the tip of the tail. The duration of immobility was recorded in seconds over a period of 6 minutes by a time recorder. Immobility time was defined as the absence of escape-oriented behaviour.

[4] = background statement; cited from earlier work

Structure (SMILES): C=C(C)[C@@H]1CCC(C)=C[C@H]1c1c(O)cc(CCCCC)cc1O [CBD, Cannabidiol]
- clasping duration [1]: significantly reduced clasping duration
- latency to fall (rotarod) [2]: significantly reduced latency to fall
- duration of immobility time (tail suspension) [3]: significantly reduced the duration of immobility time

Structure (SMILES): Cc1c(C(=O)NN2CCCCC2)nn(-c2ccc(Cl)cc2Cl)c1-c1ccc(Cl)cc1 [rimonabant]
- side effects [4]: serious side effects which limit its use, such as suicide ideation
